Data taken from patent US7390806B2, “Antibiotics containing borinic acid complexes and methods of use” (Anacor Pharmaceuticals, Inc., priority 2002, dated 2008).
≈ marks a conversion by molar mass, not a printed value.

Key:
E. faecalis ATCC 29212 = assay: MIC determination, E. faecalis ATCC 29212; format: cell-based, Enterococcus faecalis; conditions: Table 1
[1] = tested on: S. epidermidis ATCC 12228; assay: MIC determination, S. epidermidis ATCC 12228; format: cell-based, Staphylococcus epidermidis; conditions: for MIC S. epidermidis ATCC 12228: Table 1
S. aureus ATCC 29213 = assay: MIC determination, S. aureus ATCC 29213; format: cell-based, Staphylococcus aureus; conditions: Table 1
[2] = tested on: M. catarrhalis ATCC 25238; assay: MIC determination, M. catarrhalis ATCC 25238; format: cell-based; conditions: for MIC M. catarrhalis ATCC 25238: Table 1
S. pneumoniae ATCC 6301 = assay: MIC determination, S. pneumoniae ATCC 6301; format: cell-based, Streptococcus pneumoniae; conditions: for MIC S. pneumoniae ATCC 6301: Table 1
E. faecium CT-26 = assay: MIC determination, E. faecium CT-26; format: cell-based, Enterococcus faecium; conditions: for MIC E. faecium CT-26: Table 1

Structure (SMILES)	MIC E. faecalis ATCC 29212 (E. faecalis ATCC 29212) [micrograms per ml]	MIC S. epidermidis ATCC 12228 [1] [micrograms per ml]	MIC S. aureus ATCC 29213 (S. aureus ATCC 29213) [micrograms per ml]	MIC M. catarrhalis ATCC 25238 [2] [micrograms per ml]	MIC S. pneumoniae ATCC 6301 (S. pneumoniae ATCC 6301) [micrograms per ml]	MIC E. faecium CT-26 (E. faecium CT-26) [micrograms per ml]	MIC ([1]; Staphylococcus epidermidis, ATCC12228, Table 1, read-out: MIC S. epidermidis ATCC 12228) [µg/mL]	MIC ([2]; Moraxella catarrhalis, ATCC25238, Table 1, read-out: MIC M. catarrhalis ATCC 25238) [µg/mL]	MIC (S. pneumoniae ATCC 6301; Streptococcus pneumoniae, ATCC6301, Table 1, read-out: MIC S. pneumoniae ATCC 6301) [µg/mL]	MIC (E. faecium CT-26; Enterococcus faecium, CT26, Table 1, read-out: MIC E. faecium CT-26) [µg/mL]
Oc1cccc2cccnc12 [Compound 93, 8-hydroxyquinoline]	8	1	2	1	1	4				
Oc1ccc(F)c2cccnc12 [Compound 57]	16	2	2	1	4	4				
Oc1cccc2cccnc12 [Compound 37, 8-hydroxyquinoline]	8	1	1	1	1	2				
Oc1cccc2cccnc12 [Compound 63, 8-hydroxyquinoline]	8	1	2	1	2	4				
Oc1cccc2cccnc12 [Compound 97, 8-hydroxyquinoline]	8	1	2	1	1	2				
Oc1ccc(F)c2cccnc12 [Compound 34]	8	2	1	1	2	4				
Oc1cccc2cccnc12 [Compound 42, 8-hydroxyquinoline]	8	1	1	1	1	2				
Cc1ccnc2c(O)cccc12 [Compound 66]	64	1	2	0.5	1	4				
Oc1ccc(Cl)c2cccnc12 [Compound 13]	64		0.125				1 (≈ 5.57 µM)	0.25 (≈ 1.39 µM)	1 (≈ 5.57 µM)	2 (≈ 11.1 µM)
Oc1cccc2cccnc12 [Compound 56, 8-hydroxyquinoline]	8	2	2	4	2	4				
Oc1cccc2cccnc12 [Compound 27, 8-hydroxyquinoline]	8	1	0.5	1	1	2				
Oc1cccc2cccnc12 [Compound 73, 8-hydroxyquinoline]	64	1	2	0.25	2	8				
Oc1cccc2cccnc12 [Compound 38, 8-hydroxyquinoline]	16	1	1	1	2	2				
Oc1cccc2cccnc12 [Compound 33, 8-hydroxyquinoline]	8	1	1	2	1	2				
Oc1cccc2cccnc12 [Compound 48, 8-hydroxyquinoline]	8	1	1	2	1	2				
Oc1cccc2cccnc12 [Compound 86, 8-hydroxyquinoline]	8	1	2	2	2	4				
Oc1cccc2cccnc12 [Compound 99, 8-hydroxyquinoline]	8	1	2	1	2	2				
Oc1cccc2cccnc12 [Compound 88, 8-hydroxyquinoline]	8	2	2	2	2	2				
Oc1cccc2cccnc12 [Compound 61, 8-hydroxyquinoline]	16	1	2	2	1	2				
Oc1cccc2cccnc12 [Compound 45, 8-hydroxyquinoline]	8	1	1	1	1	1				
N#Cc1ccc(OB(c2cccc(Cl)c2)c2cccc(Cl)c2)c2ncccc12 [Compound 19, Bis(3-Chlorophenyl)borinic acid 5-cyano-8-hydroxyquinoline ester]	16	2	0.25	0.5	4	4				
